The subject of this test is ER-alpha MCF7. Put plainly: ER-alpha MCF7 HCS EC50; stated as measured by in vitro cell proliferation assays of Examples 902 and 903. Type of test: cell-based. Conditions: Homo sapiens, MCF7, MCF7 cells; Table 2. An outline of the steps: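 MCF7 cells seeded 1000-2000 cells/well for 16 h, then treated with nine-point 1:2 DMSO dilution series in quadruplicate at 37 °C, 5% CO2 for 4 days. Viable cells quantified by CellTiter-Glo ATP luminescence; EC50 calculated. Controls: fulvestrant at final 100 nM, DMSO 0.2% v/v.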

For 25 compounds, EC50 results are on record in patent US20250114338A1, “TETRAHYDRO-PYRIDO[3,4-b]INDOLE ESTROGEN RECEPTOR MODULATORS AND USES THEREOF” (Genentech, Inc., priority 2014, published 2025).

Usually EC50 stands for the concentration needed to bring the measured effect to its halfway point. Consider `C[C@@H]1Cc2c([nH]c3ccccc23)[C@@H](c2c(F)cc(OC3CN(CCCF)C3)cc2F)N1CC1(CF)CC1` [Example 227], for which the EC50 was found to be 0.17 nM.

For the compound `C[C@@H]1Cc2c([nH]c3ccccc23)[C@@H](c2c(F)cc(OC3CN(CCCF)C3)cc2F)N1CC1(CO)CC1` [Example 228, [1-[[(1R,3R)-1-[2,6-difluoro-4-[1-(3-fluoropropyl)azetidin-3-yl]oxy-phenyl]-3-methyl-1,3,4,9-tetrahydropyrido[3,4-b]indol-2-yl]methyl]cyclopropyl] methanol], the half-maximal effective concentration (EC50) stood at 1 nM. Take `C[C@@H]1Cc2c([nH]c3ccccc23)[C@H](c2ccc(OCCN3CC(CF)C3)cc2F)N1C(=O)C(C)(C)F` [Example 229, 2-fluoro-1-[(1S,3R)-1-[2-fluoro-4-[2-[3-(fluoromethyl)azetidin-1-yl]ethoxy]phenyl]-3-methyl-1,3,4,9-tetrahydropyrido[3,4-b]indol-2-yl]-2-methyl-propan-1-one]: the EC50 worked out at 25 nM. Next, `C[C@@H]1Cc2c([nH]c3ccccc23)[C@@H](c2ccc(OCCN3CC(CF)C3)cc2F)N1C(=O)C(C)(C)F` [Example 230, 2-fluoro-1-[(1R,3R)-1-[2-fluoro-4-[2-[3-(fluoromethyl)azetidin-1-yl]ethoxy]phenyl]-3-methyl-1,3,4,9-tetrahydropyrido[3,4-b]indol-2-yl]-2-methyl-propan-1-one]: 0.068 nM; `C[C@@H]1Cc2c([nH]c3ccccc23)[C@H](c2ccc(OCCN3CC(CF)C3)cc2F)N1S(C)(=O)=O` [Example 231, (1S,3R)-1-[2-fluoro-4-[2-[3-(fluoromethyl)azetidin-1-yl]ethoxy]phenyl]-3-methyl-2-methylsulfonyl-1,3,4,9-tetrahydropyrido[3,4-b]indole]: 24 nM.

For the compound `C[C@@H]1Cc2c([nH]c3ccccc23)[C@@H](c2ccc(OCCN3CC(CF)C3)cc2F)N1S(C)(=O)=O` [Example 232, (1R,3R)-1-[2-fluoro-4-[2-[3-(fluoromethyl)azetidin-1-yl]ethoxy]phenyl]-3-methyl-2-methylsulfonyl-1,3,4,9-tetrahydropyrido[3,4-b]indole], the EC50 came out at 0.192 nM. In the case of `C[C@@H]1Cc2c([nH]c3ccccc23)[C@@H](c2c(F)cc(OC3CN(CCCF)C3)cc2F)N1C[C@](C)(F)CO` [Example 233, 3-((1R,3R)-1-(2,6-difluoro-4-((1-(3-fluoropropyl)azetidin-3-yl)oxy)phenyl)-3-methyl-1,3,4,9-tetrahydro-2H-pyrido[3,4-b]indol-2-yl)-2-fluoro-2-methylpropan-1-ol] it was 0.133 nM. `C[C@@H]1Cc2c([nH]c3ccccc23)[C@@H](c2c(F)cc(OC3CN(CCCF)C3)cc2F)N1C[C@@](C)(F)CO` [Example 234, 3-((1R,3R)-1-(2,6-difluoro-4-((1-(3-fluoropropyl)azetidin-3-yl)oxy)phenyl)-3-methyl-1,3,4,9-tetrahydro-2H-pyrido[3,4-b]indol-2-yl)-2-fluoro-2-methylpropan-1-ol]: the EC50 worked out at 0.18 nM. Next, `C[C@@H]1Cc2c([nH]c3ccccc23)[C@H](c2ccc(OCCN3CC(CF)C3)cc2)N1C(=O)C(C)(C)F` [Example 235, 2-fluoro-1-[(1S,3R)-1-[4-[2-[3-(fluoromethyl)azetidin-1-yl]ethoxy]phenyl]-3-methyl-1,3,4,9-tetrahydropyrido[3,4-b]indol-2-yl]-2-methyl-propan-1-one]: 24 nM; `CC(C)(F)CN1CCc2c([nH]c3ccccc23)[C@H]1c1c(F)cc(OCCN2CC(CF)C2)cc1F` [Example 236, (IR)-1-[2,6-difluoro-4-[2-[3-(fluoromethyl)azetidin-1-yl]ethoxy]phenyl]-2-(2-fluoro-2-methyl-propyl)-1,3,4,9-tetrahydropyrido[3,4-b]indole]: 0.182 nM; `CC(C)(F)CN1CCc2c([nH]c3ccccc23)[C@@H]1c1c(F)cc(OCCN2CC(CF)C2)cc1F` [Example 237, (1S)-1-[2,6-difluoro-4-[2-[3-(fluoromethyl)azetidin-1-yl]ethoxy]phenyl]-2-(2-fluoro-2-methyl-propyl)-1,3,4,9-tetrahydropyrido[3,4-b]indole]: 46 nM. As to `C[C@@H]1Cc2c([nH]c3ccccc23)[C@@H](c2c(F)cc(OC3CN(CCCF)C3)cc2F)N1C(=O)C1(F)CC1` [Example 238, [(1R,3R)-1-[2,6-difluoro-4-[1-(3-fluoropropyl)azetidin-3-yl]oxy-phenyl]-3-methyl-1,3,4,9-tetrahydropyrido[3,4-b]indol-2-yl]-(1-fluorocyclopropyl)methanone], the concentration giving a half-maximal response (EC50) turned out to be 0.244 nM. In the case of `C[C@@H]1Cc2c([nH]c3ccc(Cl)cc23)[C@@H](c2c(F)cc(OC3CN(CCCF)C3)cc2F)N1CC(C)(C)F` [Example 239, (1R,3R)-6-chloro-1-(2,6-difluoro-4-((1-(3-fluoropropyl)azetidin-3-yl)oxy)phenyl)-2-(2-fluoro-2-methylpropyl)-3-methyl-2,3,4,9-tetrahydro-1H-pyrido[3,4-b]indole] it was 1.56 nM; in that of `C[C@@H]1Cc2c([nH]c3cc(F)ccc23)[C@@H](c2c(F)cc(OCCN3CC(CF)C3)cc2F)N1CC(C)(C)F` [Example 240, (1R,3R)-1-(2,6-difluoro-4-(2-(3-(fluoromethyl)azetidin-1-yl)ethoxy)phenyl)-7-fluoro-2-(2-fluoro-2-methylpropyl)-3-methyl-2,3,4,9-tetrahydro-1H-pyrido[3,4-b]indole], 0.261 nM. Next, `C[C@@H]1Cc2c([nH]c3ccc(F)cc23)[C@@H](c2c(F)cc(OCCN3CC(CF)C3)cc2F)N1CC(C)(C)F` [Example 241, (1R,3R)-1-(2,6-difluoro-4-(2-(3-(fluoromethyl)azetidin-1-yl)ethoxy)phenyl)-6-fluoro-2-(2-fluoro-2-methylpropyl)-3-methyl-2,3,4,9-tetrahydro-1H-pyrido[3,4-b]indole]: 0.381 nM; `C[C@@H]1Cc2c([nH]c3ccc(F)cc23)[C@@H](c2c(F)cc(OC3CN(CCCF)C3)cc2F)N1CC(C)(C)F` [Example 242, (1R,3R)-1-(2,6-difluoro-4-((1-(3-fluoropropyl)azetidin-3-yl)oxy)phenyl)-6-fluoro-2-(2-fluoro-2-methylpropyl)-3-methyl-2,3,4,9-tetrahydro-1H-pyrido[3,4-b]indole]: 5.42 nM. In the case of `C[C@@H]1Cc2c([nH]c3ccccc23)[C@@H](c2c(F)cc(OCCN3CC(CF)C3)cc2F)N1CC1(CO)CC1` [Example 243, (1-(((1R,3R)-1-(2,6-difluoro-4-(2-(3-(fluoromethyl)azetidin-1-yl)ethoxy)phenyl)-3-methyl-1,3,4,9-tetrahydro-2H-pyrido[3,4-b]indol-2-yl)methyl)cyclopropyl) methanol] it was 2 nM; in that of `C[C@H]1Cc2c([nH]c3ccc(Cl)cc23)[C@H](c2c(F)cc(OC3CN(CCCF)C3)cc2F)N1CC(C)(C)F` [Example 244, (1S,3S)-6-chloro-1-(2,6-difluoro-4-((1-(3-fluoropropyl)azetidin-3-yl)oxy)phenyl)-2-(2-fluoro-2-methylpropyl)-3-methyl-2,3,4,9-tetrahydro-1H-pyrido[3,4-b]indole], 63 nM; in that of `C[C@H]1Cc2c([nH]c3ccc(F)cc23)[C@H](c2c(F)cc(OCCN3CC(CF)C3)cc2F)N1CC(C)(C)F` [Example 245, (1S,3S)-1-(2,6-difluoro-4-(2-(3-(fluoromethyl)azetidin-1-yl)ethoxy)phenyl)-6-fluoro-2-(2-fluoro-2-methylpropyl)-3-methyl-2,3,4,9-tetrahydro-1H-pyrido[3,4-b]indole], 35 nM.

For the compound `C[C@@H]1Cc2c([nH]c3ccccc23)[C@@H](c2c(F)cc(OC3CN(CCCF)C3)cc2F)N1CC1(C)COC1` [Example 246, (1R,3R)-1-[2,6-difluoro-4-[1-(3-fluoropropyl)azetidin-3-yl]oxy-phenyl]-3-methyl-2-[(3-methyloxetan-3-yl)methyl]-1,3,4,9-tetrahydropyrido[3,4-b]indole], the EC50 was determined as 0.358 nM.

For `C[C@@H]1Cc2c([nH]c3cccc(F)c23)[C@@H](c2c(F)cc(OCCN3CC(CF)C3)cc2F)N1CC(C)(C)F` [Example 247, (1R,3R)-1-(2,6-difluoro-4-(2-(3-(fluoromethyl)azetidin-1-yl)ethoxy)phenyl)-5-fluoro-2-(2-fluoro-2-methylpropyl)-3-methyl-2,3,4,9-tetrahydro-1H-pyrido[3,4-b]indole], the half-maximal effective concentration (EC50) amounted to 4.34 nM. In the case of `C[C@@H]1Cc2c([nH]c3cc(F)ccc23)[C@@H](c2c(F)cc(OC3CN(CCCF)C3)cc2F)N1CC(C)(C)F` [Example 248, (1R,3R)-1-(2,6-difluoro-4-((1-(3-fluoropropyl)azetidin-3-yl)oxy)phenyl)-7-fluoro-2-(2-fluoro-2-methylpropyl)-3-methyl-2,3,4,9-tetrahydro-1H-pyrido[3,4-b]indole] it was 0.518 nM; in that of `C[C@@H]1Cc2c([nH]c3cccc(F)c23)[C@@H](c2c(F)cc(OC3CN(CCCF)C3)cc2F)N1CC(C)(C)F` [Example 249, (1R,3R)-1-(2,6-difluoro-4-((1-(3-fluoropropyl)azetidin-3-yl)oxy)phenyl)-5-fluoro-2-(2-fluoro-2-methylpropyl)-3-methyl-2,3,4,9-tetrahydro-1H-pyrido[3,4-b]indole], 0.511 nM. Next, `C[C@@H]1Cc2c([nH]c3ccccc23)[C@@H](c2ccc(OCCN3CC[C@@H](CF)C3)cc2)N1CC(C)(C)F` [Example 250, (1R,3R)-2-(2-fluoro-2-methyl-propyl)-1-[4-[2-[(3R)-3-(fluoromethyl)pyrrolidin-1-yl]ethoxy]phenyl]-3-methyl-1,3,4,9-tetrahydropyrido[3,4-b]indole]: 0.275 nM; `C[C@H]1Cc2c([nH]c3cccc(F)c23)[C@H](c2c(F)cc(OCCN3CC(CF)C3)cc2F)N1CC(C)(C)F` [Example 251, (1S,3S)-1-(2,6-difluoro-4-(2-(3-(fluoromethyl)azetidin-1-yl)ethoxy)phenyl)-5-fluoro-2-(2-fluoro-2-methylpropyl)-3-methyl-2,3,4,9-tetrahydro-1H-pyrido[3,4-b]indole]: 21 nM.
